Experiments:
velvetleaf [1] = assay: Test Example 4: herbicidal effect by soil treatment (Table 19, symbol M); type: in vivo, velvetleaf (Abutilon theophrasti); conditions: amount of applied herbicide 320 g/ha
Procedure, shortened: (§1)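 Scoring uses the grading scale of an earlier test, three weeks post-application. Treatment consists of spraying a diluted emulsion formulation across the surface of sterilized diluvial soil in which seeds are buried near 1.5 cm deep; boxes are kept in a greenhouse between 25° C. and 30° C.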

lambsquarters [2] = assay: Test Example 4: herbicidal effect by soil treatment (Table 19, symbol O); type: in vivo, lambsquarters (Chenopodium album); conditions: amount of applied herbicide 320 g/ha
Procedure, shortened: as §1

southern crabgrass [3] = assay: Test Example 4: herbicidal effect by soil treatment (Table 19, symbol F); type: in vivo, southern crabgrass (Digitaria ciliaris); conditions: amount of applied herbicide 320 g/ha
Procedure, shortened: as §1

late watergrass = assay: Test Example 1: herbicidal activity, application before weed generation under submerged conditions (Table 16, symbol A); type: in vivo, late watergrass (Echinochloa oryzicola); conditions: 320 g/ha applied herbicide
Procedure, shortened: (§2)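 Emulsion formulation, water-diluted to set dose, was put onto the flooded surface (4 cm depth, alluvial soil) the same day weeds were sown and 2.5-leaf rice transplanted. After 3 weeks at 25-30 °C under glass, each species was rated 0 (≤5% kill) to 5 (≥90% kill).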

redroot pigweed [4] = assay: Test Example 4: herbicidal effect by soil treatment (Table 19, symbol N); type: in vivo, redroot pigweed (Amaranthus retroflexus); conditions: amount of applied herbicide 320 g/ha
Procedure, shortened: as §1

persian speedwell [5] = assay: Test Example 4: herbicidal effect by soil treatment (Table 19, symbol R); type: in vivo, Persian speedwell (Veronica persica); conditions: amount of applied herbicide 320 g/ha
Procedure, shortened: as §1

persian speedwell [6] = assay: Test Example 5: herbicidal effect by foliage application, plastic box (Table 20, symbol R); type: in vivo, Persian speedwell (Veronica persica); conditions: foliage application, 320 g/ha, three weeks after application
Procedure, shortened: (§3)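 Post-emergence foliar test in sterilized diluvial soil. Compound applied as water-diluted emulsion at a predetermined rate to 14-day-old plants; evaluation at three weeks.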

Chinese sprangletop = assay: Test Example 3: herbicidal effect by foliage application, Wagner pot (Table 18, symbol D); type: in vivo, chinese sprangletop (Leptochloa chinensis); conditions: 320 g/ha
Procedure, shortened: (§4)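 Plants were sown in alluvial soil held under 0.1–0.5 cm standing water and grown 14 days in a greenhouse at 25–30 °C. An emulsifiable formulation, water-diluted to the set dose, was then sprayed onto the foliage, and effects were scored three weeks later using previously defined criteria.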

false cleavers [7] = assay: Test Example 5: herbicidal effect by foliage application, plastic box (Table 20, symbol Q); type: in vivo, false cleavers (Galium spurium); conditions: foliage application, 320 g/ha, three weeks after application
Procedure, shortened: as §3

chickweed [8] = assay: Test Example 5: herbicidal effect by foliage application, plastic box (Table 20, symbol P); type: in vivo, common chickweed (Stellaria media); conditions: foliage application, 320 g/ha, three weeks after application
Procedure, shortened: as §3

chickweed [9] = assay: Test Example 4: herbicidal effect by soil treatment (Table 19, symbol P); type: in vivo, common chickweed (Stellaria media); conditions: amount of applied herbicide 320 g/ha
Procedure, shortened: as §1

rice flat sedge = assay: Test Example 3: herbicidal effect by foliage application, Wagner pot (Table 18, symbol E); type: in vivo, rice flat sedge (Cyperus iria); conditions: 320 g/ha
Procedure, shortened: as §4

barnyard grass [10] = assay: Test Example 4: herbicidal effect by soil treatment (Table 19, symbol H); type: in vivo, barnyard grass (Echinochloa crus-galli); conditions: amount of applied herbicide 320 g/ha
Procedure, shortened: as §1

Japanese bulrush = assay: Test Example 1: herbicidal activity, application before weed generation under submerged conditions (Table 16, symbol B); type: in vivo, Japanese bulrush (Schoenoplectus juncoides); conditions: 320 g/ha applied herbicide
Procedure, shortened: as §2

Italian ryegrass [11] = assay: Test Example 5: herbicidal effect by foliage application, plastic box (Table 20, symbol K); type: in vivo, Italian ryegrass (Lolium multiflorum); conditions: foliage application, 320 g/ha, three weeks after application
Procedure, shortened: as §3

blackgrass [12] = assay: Test Example 4: herbicidal effect by soil treatment (Table 19, symbol J); type: in vivo, blackgrass (Alopecurus myosuroides); conditions: amount of applied herbicide 320 g/ha
Procedure, shortened: as §1

southern crabgrass [13] = assay: Test Example 5: herbicidal effect by foliage application, plastic box (Table 20, symbol F); type: in vivo, southern crabgrass (Digitaria ciliaris); conditions: foliage application, 320 g/ha, three weeks after application
Procedure, shortened: as §3

barnyard grass [14] = assay: Test Example 5: herbicidal effect by foliage application, plastic box (Table 20, symbol H); type: in vivo, barnyard grass (Echinochloa crus-galli); conditions: foliage application, 320 g/ha, three weeks after application
Procedure, shortened: as §3

lambsquarters [15] = assay: Test Example 5: herbicidal effect by foliage application, plastic box (Table 20, symbol O); type: in vivo, lambsquarters (Chenopodium album); conditions: foliage application, 320 g/ha, three weeks after application
Procedure, shortened: as §3

green foxtail [16] = assay: Test Example 5: herbicidal effect by foliage application, plastic box (Table 20, symbol G); type: in vivo, green foxtail (Setaria viridis); conditions: foliage application, 320 g/ha, three weeks after application
Procedure, shortened: as §3

velvetleaf [17] = assay: Test Example 5: herbicidal effect by foliage application, plastic box (Table 20, symbol M); type: in vivo, velvetleaf (Abutilon theophrasti); conditions: foliage application, 320 g/ha, three weeks after application
Procedure, shortened: as §3

wild oat [18] = assay: Test Example 4: herbicidal effect by soil treatment (Table 19, symbol I); type: in vivo, wild oat (Avena fatua); conditions: amount of applied herbicide 320 g/ha
Procedure, shortened: as §1

windgrass = assay: Test Example 4: herbicidal effect by soil treatment (Table 19, symbol L); type: in vivo, windgrass (Apera spica-venti); conditions: amount of applied herbicide 320 g/ha
Procedure, shortened: as §1

Italian ryegrass [19] = assay: Test Example 4: herbicidal effect by soil treatment (Table 19, symbol K); type: in vivo, Italian ryegrass (Lolium multiflorum); conditions: amount of applied herbicide 320 g/ha
Procedure, shortened: as §1

blackgrass [20] = assay: Test Example 5: herbicidal effect by foliage application, plastic box (Table 20, symbol J); type: in vivo, blackgrass (Alopecurus myosuroides); conditions: foliage application, 320 g/ha, three weeks after application
Procedure, shortened: as §3

oval-leafed pondweed = assay: Test Example 1: herbicidal activity, application before weed generation under submerged conditions (Table 16, symbol C); type: in vivo, oval-leafed pondweed (Monochoria vaginalis); conditions: 320 g/ha applied herbicide
Procedure, shortened: as §2

barnyard grass [21] = assay: Test Example 3: herbicidal effect by foliage application, Wagner pot (Table 18, symbol H); type: in vivo, barnyard grass (Echinochloa crus-galli); conditions: 320 g/ha
Procedure, shortened: as §4

false cleavers [22] = assay: Test Example 4: herbicidal effect by soil treatment (Table 19, symbol Q); type: in vivo, false cleavers (Galium spurium); conditions: amount of applied herbicide 320 g/ha
Procedure, shortened: as §1

green foxtail [23] = assay: Test Example 4: herbicidal effect by soil treatment (Table 19, symbol G); type: in vivo, green foxtail (Setaria viridis); conditions: amount of applied herbicide 320 g/ha
Procedure, shortened: as §1

redroot pigweed [24] = assay: Test Example 5: herbicidal effect by foliage application, plastic box (Table 20, symbol N); type: in vivo, redroot pigweed (Amaranthus retroflexus); conditions: foliage application, 320 g/ha, three weeks after application
Procedure, shortened: as §3

wild oat [25] = assay: Test Example 5: herbicidal effect by foliage application, plastic box (Table 20, symbol I); type: in vivo, wild oat (Avena fatua); conditions: foliage application, 320 g/ha, three weeks after application
Procedure, shortened: as §3

CCCC(=O)Oc1c(C)nn(C)c(=O)c1-c1c(-c2ccc(C(C)=O)cc2)sc2ccccc12 [1-042]
herbicidal effect rating, M: velvetleaf (velvetleaf [1]): 3 (Herbicidal rate of 40% or more and less than 70%)
herbicidal effect rating, O: lambsquarters (lambsquarters [2]): 3 (Herbicidal rate of 40% or more and less than 70%)
herbicidal effect rating, F: southern crabgrass (southern crabgrass [3]): 2 (Herbicidal rate of 20% or more and less than 40%)
Herbicidal effect on A: late watergrass (grade 0-5) (late watergrass): 3 (Herbicidal rate of 40% or more and less than 70%)
herbicidal effect rating, N: redroot pigweed (redroot pigweed [4]): 5 (Herbicidal rate of 90% or more (almost completely withered))
herbicidal effect rating, R: persian speedwell (persian speedwell [5]): 5 (Herbicidal rate of 90% or more (almost completely withered))
herbicidal effect grade, R: persian speedwell (persian speedwell [6]): 5 (Herbicidal rate of 90% or more (almost completely withered))
herbicidal effect on D (Chinese sprangletop), rating 0-5 (Chinese sprangletop): 0 (Herbicidal rate of 5% or less (almost no effect))
herbicidal effect grade, Q: false cleavers (false cleavers [7]): 2 (Herbicidal rate of 20% or more and less than 40%)
herbicidal effect grade, P: chickweed (chickweed [8]): 5 (Herbicidal rate of 90% or more (almost completely withered))
herbicidal effect rating, P: chickweed (chickweed [9]): 4 (Herbicidal rate of 70% or more and less than 90%)
herbicidal effect on E (rice flat sedge), rating 0-5 (rice flat sedge): 5 (Herbicidal rate of 90% or more (almost completely withered))
herbicidal effect rating, H: barnyard grass (barnyard grass [10]): 0 (Herbicidal rate of 5% or less (almost no effect))
Herbicidal effect on B: Japanese bulrush (grade 0-5) (Japanese bulrush): 4 (Herbicidal rate of 70% or more and less than 90%)
herbicidal effect grade, K: Italian ryegrass (Italian ryegrass [11]): 4 (Herbicidal rate of 70% or more and less than 90%)
herbicidal effect rating, J: blackgrass (blackgrass [12]): 0 (Herbicidal rate of 5% or less (almost no effect))
herbicidal effect grade, F: southern crabgrass (southern crabgrass [13]): 3 (Herbicidal rate of 40% or more and less than 70%)
herbicidal effect grade, H: barnyard grass (barnyard grass [14]): 3 (Herbicidal rate of 40% or more and less than 70%)
herbicidal effect grade, O: lambsquarters (lambsquarters [15]): 3 (Herbicidal rate of 40% or more and less than 70%)
herbicidal effect grade, G: green foxtail (green foxtail [16]): 3 (Herbicidal rate of 40% or more and less than 70%)
herbicidal effect grade, M: velvetleaf (velvetleaf [17]): 5 (Herbicidal rate of 90% or more (almost completely withered))
herbicidal effect rating, I: wild oat (wild oat [18]): 0 (Herbicidal rate of 5% or less (almost no effect))
herbicidal effect rating, L: windgrass (windgrass): 0 (Herbicidal rate of 5% or less (almost no effect))
herbicidal effect rating, K: Italian ryegrass (Italian ryegrass [19]): 3 (Herbicidal rate of 40% or more and less than 70%)
herbicidal effect grade, J: blackgrass (blackgrass [20]): 0 (Herbicidal rate of 5% or less (almost no effect))
Herbicidal effect on C: oval-leafed pondweed (grade 0-5) (oval-leafed pondweed): 3 (Herbicidal rate of 40% or more and less than 70%)
herbicidal effect on H (barnyard grass), rating 0-5 (barnyard grass [21]): 3 (Herbicidal rate of 40% or more and less than 70%)
herbicidal effect rating, Q: false cleavers (false cleavers [22]): 0 (Herbicidal rate of 5% or less (almost no effect))
herbicidal effect rating, G: green foxtail (green foxtail [23]): 3 (Herbicidal rate of 40% or more and less than 70%)
herbicidal effect grade, N: redroot pigweed (redroot pigweed [24]): 4 (Herbicidal rate of 70% or more and less than 90%)
herbicidal effect grade, I: wild oat (wild oat [25]): 0 (Herbicidal rate of 5% or less (almost no effect))

Source: US20230085307A1, “PYRIDAZINONE COMPOUND AND HERBICIDE” (NISSAN CHEMICAL CORPORATION, priority 2019, published 2023)
